Calls of active or inactive are those of the source. The rule behind the calls is not given here.

As a reminder, the IC50 is the concentration needed to halve the response being measured.

For experiment [1], the system named is MOLT-4. Kind of experiment: Antiproliferative activity against human MOLT-4 cells assessed as reduction in cell viability measured after 48 hrs by MTS assay. It is filed as functional, cell-based. The settings on record: MOLT-4, 48 h. On the technique in general: Tetrazolium assays rely on reduction of a dye to a coloured formazan, in cell work by metabolically active cells.

Experiment [2] concerns the target Protein cereblon/Bcl-2-like protein 1 (Homo sapiens, UniProt Q07817+Q96SW2). The experiment in a line: Protac activity at CRBN/BCL-XL in human MOLT-4 cells assessed as induction of BCL-XL degradation by measuring remaining BCL-XL level at 50 nM measured after 16 hrs by immunoblotting analysis relative to control. The class given is cell-based. For orientation: In western blotting, separated proteins are transferred to a membrane and probed.

Experiment [3] concerns the target Protein cereblon/Apoptosis regulator Bcl-2 (Homo sapiens) (UniProt P10415+Q96SW2). The experiment in a line: Protac activity at CRBN/BCL2 in human MOLT-4 cells assessed as induction of BCL2 degradation at 50 nM measured after 16 hrs by immunoblotting analysis. The class given is cell-based.

Chain of Protein cereblon/Bcl-2-like protein 1 (Q07817 whole entry, looked up): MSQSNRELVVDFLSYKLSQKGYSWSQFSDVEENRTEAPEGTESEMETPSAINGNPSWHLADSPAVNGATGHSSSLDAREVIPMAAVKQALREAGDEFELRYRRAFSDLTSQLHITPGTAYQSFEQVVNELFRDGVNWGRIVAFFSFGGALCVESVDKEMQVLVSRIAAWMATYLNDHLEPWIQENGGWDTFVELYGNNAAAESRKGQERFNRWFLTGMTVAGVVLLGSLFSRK
Chain of Protein cereblon/Bcl-2-like protein 1 (Q96SW2 whole entry, looked up): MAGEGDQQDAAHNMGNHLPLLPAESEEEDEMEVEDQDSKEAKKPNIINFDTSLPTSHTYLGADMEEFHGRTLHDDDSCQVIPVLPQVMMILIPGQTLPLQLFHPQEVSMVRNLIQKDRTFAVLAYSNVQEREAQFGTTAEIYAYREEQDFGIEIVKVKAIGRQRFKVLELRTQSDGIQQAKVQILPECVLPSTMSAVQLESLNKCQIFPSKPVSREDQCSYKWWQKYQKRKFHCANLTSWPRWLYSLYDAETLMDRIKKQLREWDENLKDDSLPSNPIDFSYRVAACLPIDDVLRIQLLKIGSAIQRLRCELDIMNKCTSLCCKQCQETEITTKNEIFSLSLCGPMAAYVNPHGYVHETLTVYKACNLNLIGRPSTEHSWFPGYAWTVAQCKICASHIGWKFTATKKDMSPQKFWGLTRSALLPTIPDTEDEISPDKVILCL
Chain of Protein cereblon/Apoptosis regulator Bcl-2 (Homo sapiens) (P10415 whole entry, looked up): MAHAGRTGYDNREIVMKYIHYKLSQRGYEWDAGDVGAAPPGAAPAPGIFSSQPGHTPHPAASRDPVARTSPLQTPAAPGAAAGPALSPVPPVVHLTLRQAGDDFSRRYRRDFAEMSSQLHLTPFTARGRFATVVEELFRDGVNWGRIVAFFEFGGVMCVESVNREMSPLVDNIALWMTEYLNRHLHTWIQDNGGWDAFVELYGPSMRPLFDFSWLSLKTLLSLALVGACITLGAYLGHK
Chain of Protein cereblon/Apoptosis regulator Bcl-2 (Homo sapiens) (Q96SW2 whole entry, looked up): as the sequence (Q96SW2 whole entry, looked up) above

For the compound `CN(CCCCNc1cccc2c1C(=O)N([C@@H]1CCC(=O)NC1=O)C2=O)CC[C@H](CSc1ccccc1)Nc1ccc(S(=O)(=O)NC(=O)c2ccc(N3CCN(CC4=C(c5ccc(Cl)cc5)CCC(C)(C)C4)CC3)cc2)cc1S(=O)(=O)C(F)(F)F`, in experiment [1], the 50% inhibitory concentration (IC50) came out at 38.7 nM. For the same compound, in experiment [2], the Activity was 40%. In experiment [3], the outcome was inactive.

For `CN(CCCCCCNc1cccc2c1C(=O)N([C@@H]1CCC(=O)NC1=O)C2=O)CC[C@H](CSc1ccccc1)Nc1ccc(S(=O)(=O)NC(=O)c2ccc(N3CCN(CC4=C(c5ccc(Cl)cc5)CCC(C)(C)C4)CC3)cc2)cc1S(=O)(=O)C(F)(F)F`, the IC50 in experiment [1] was 147 nM. Besides, in experiment [2], the Activity stood at 73%. In experiment [3], the result was inactive.

Regarding `CC1(C)CCC(c2ccc(Cl)cc2)=C(CN2CCN(c3ccc(C(=O)NS(=O)(=O)c4ccc(N[C@H](CCN5CCN(C(=O)COCCOCCNc6cccc7c6C(=O)N([C@@H]6CCC(=O)NC6=O)C7=O)CC5)CSc5ccccc5)c(S(=O)(=O)C(F)(F)F)c4)cc3)CC2)C1`, in experiment [1], the half-inhibitory concentration (IC50) is 161 nM. In experiment [2], the Activity was 20%. Moreover, the result in experiment [3] was inactive.

Consider `CC1(C)CCC(c2ccc(Cl)cc2)=C(CN2CCN(c3ccc(C(=O)NS(=O)(=O)c4ccc(N[C@H](CCN5CCN(CCOCCNc6cccc7c6C(=O)N([C@@H]6CCC(=O)NC6=O)C7=O)CC5)CSc5ccccc5)c(S(=O)(=O)C(F)(F)F)c4)cc3)CC2)C1`, for which the IC50 in experiment [1] was found to be 60.5 nM. In addition, in experiment [2], the Activity came out at 20%. Also, in experiment [3], the outcome was inactive.

Turning to `CC1(C)CCC(c2ccc(Cl)cc2)=C(CN2CCN(c3ccc(C(=O)NS(=O)(=O)c4ccc(N[C@H](CCN5CCN(C(=O)COCCOCCOCCNc6cccc7c6C(=O)N([C@@H]6CCC(=O)NC6=O)C7=O)CC5)CSc5ccccc5)c(S(=O)(=O)C(F)(F)F)c4)cc3)CC2)C1`, the IC50 in experiment [1] was found to be 211 nM. Further, the Activity in experiment [2] worked out at 21%. In addition, in experiment [3], the outcome was inactive.

`CC1(C)CCC(c2ccc(Cl)cc2)=C(CN2CCN(c3ccc(C(=O)NS(=O)(=O)c4ccc(N[C@H](CCN5CCN(CCCCCNc6cccc7c6C(=O)N([C@@H]6CCC(=O)NC6=O)C7=O)CC5)CSc5ccccc5)c(S(=O)(=O)C(F)(F)F)c4)cc3)CC2)C1`: in experiment [1], the IC50 amounted to 100 nM. Moreover, in experiment [2], the Activity is 45%. Moreover, the result in experiment [3] was inactive.

Regarding `CN(CC[C@H](CSc1ccccc1)Nc1ccc(S(=O)(=O)NC(=O)c2ccc(N3CCN(CC4=C(c5ccc(Cl)cc5)CCC(C)(C)C4)CC3)cc2)cc1S(=O)(=O)C(F)(F)F)C(=O)CCCn1cc(COCCOCCOCCNc2cccc3c2C(=O)N([C@@H]2CCC(=O)NC2=O)C3=O)nn1`, in experiment [1], the IC50 amounted to 769 nM. For the same compound, the Activity in experiment [2] turned out to be 67%. The outcome in experiment [3] was inactive.

`CN(CCOCCOCCOCCOCCNc1cccc2c1C(=O)N([C@@H]1CCC(=O)NC1=O)C2=O)CC[C@H](CSc1ccccc1)Nc1ccc(S(=O)(=O)NC(=O)c2ccc(N3CCN(CC4=C(c5ccc(Cl)cc5)CCC(C)(C)C4)CC3)cc2)cc1S(=O)(=O)C(F)(F)F`: the IC50 in experiment [1] was 19.3 nM. Also, the Activity in experiment [2] was determined as 5%. Also, the result in experiment [3] was inactive.

Take `CN(CCCCCCCn1cc(COCCOCCOCCNc2cccc3c2C(=O)N([C@@H]2CCC(=O)NC2=O)C3=O)nn1)CC[C@H](CSc1ccccc1)Nc1ccc(S(=O)(=O)NC(=O)c2ccc(N3CCN(CC4=C(c5ccc(Cl)cc5)CCC(C)(C)C4)CC3)cc2)cc1S(=O)(=O)C(F)(F)F`: the Activity in experiment [2] worked out at 24%. Besides, in experiment [3], the outcome was inactive.

Take `CC1(C)CCC(c2ccc(Cl)cc2)=C(CN2CCN(c3ccc(C(=O)NS(=O)(=O)c4ccc(N[C@H](CCN5CCN(CCCCNc6cccc7c6C(=O)N([C@@H]6CCC(=O)NC6=O)C7=O)CC5)CSc5ccccc5)c(S(=O)(=O)C(F)(F)F)c4)cc3)CC2)C1`: the IC50 in experiment [1] amounted to 43 nM. Also, the Activity in experiment [2] was 20%. Besides, in experiment [3], the outcome was inactive.

Turning to `CN(CC[C@H](CSc1ccccc1)Nc1ccc(S(=O)(=O)NC(=O)c2ccc(N3CCN(CC4=C(c5ccc(Cl)cc5)CCC(C)(C)C4)CC3)cc2)cc1S(=O)(=O)C(F)(F)F)C(=O)CCCCCCn1cc(COCCOCCOCCNc2cccc3c2C(=O)N([C@@H]2CCC(=O)NC2=O)C3=O)nn1`, the IC50 in experiment [1] stood at 179 nM. Further, the Activity in experiment [2] came out at 29%. In addition, in experiment [3], the outcome was inactive.

`CC1(C)CCC(c2ccc(Cl)cc2)=C(CN2CCN(c3ccc(C(=O)NS(=O)(=O)c4ccc(N[C@H](CCN5CCN(C(=O)CCCCNc6cccc7c6C(=O)N([C@@H]6CCC(=O)NC6=O)C7=O)CC5)CSc5ccccc5)c(S(=O)(=O)C(F)(F)F)c4)cc3)CC2)C1`: the 50% inhibitory concentration (IC50) in experiment [1] was found to be 346 nM. Also, the Activity in experiment [2] is 81%. Besides, in experiment [3], the result was inactive.

In the case of `CN(CCCCCCCCNc1cccc2c1C(=O)N([C@@H]1CCC(=O)NC1=O)C2=O)CC[C@H](CSc1ccccc1)Nc1ccc(S(=O)(=O)NC(=O)c2ccc(N3CCN(CC4=C(c5ccc(Cl)cc5)CCC(C)(C)C4)CC3)cc2)cc1S(=O)(=O)C(F)(F)F`, in experiment [1], the IC50 is greater than 2000 nM. Besides, in experiment [2], the Activity came out at 94%. Moreover, in experiment [3], the outcome was inactive.

`CN(CCCCCNc1cccc2c1C(=O)N([C@@H]1CCC(=O)NC1=O)C2=O)CC[C@H](CSc1ccccc1)Nc1ccc(S(=O)(=O)NC(=O)c2ccc(N3CCN(CC4=C(c5ccc(Cl)cc5)CCC(C)(C)C4)CC3)cc2)cc1S(=O)(=O)C(F)(F)F`: the IC50 in experiment [1] is 60.9 nM. Also, in experiment [2], the Activity was 47%. In experiment [3], the result was inactive.

Regarding `CC1(C)CCC(c2ccc(Cl)cc2)=C(CN2CCN(c3ccc(C(=O)NS(=O)(=O)c4ccc(N[C@H](CCN5CCN(C(=O)CCCCCCCNc6cccc7c6C(=O)N([C@@H]6CCC(=O)NC6=O)C7=O)CC5)CSc5ccccc5)c(S(=O)(=O)C(F)(F)F)c4)cc3)CC2)C1`, the IC50 in experiment [1] is greater than 2000 nM. Moreover, the Activity in experiment [2] was found to be 89%. Further, the result in experiment [3] was inactive.

For the compound `CN(CC[C@H](CSc1ccccc1)Nc1ccc(S(=O)(=O)NC(=O)c2ccc(N3CCN(CC4=C(c5ccc(Cl)cc5)CCC(C)(C)C4)CC3)cc2)cc1S(=O)(=O)C(F)(F)F)C(=O)CCCCCCn1cc(COCCOCCNc2cccc3c2C(=O)N([C@@H]2CCC(=O)NC2=O)C3=O)nn1`, the IC50 in experiment [1] was determined as 177 nM. For the same compound, the Activity in experiment [2] amounted to 28%. Moreover, the outcome in experiment [3] was inactive.

`CC1(C)CCC(c2ccc(Cl)cc2)=C(CN2CCN(c3ccc(C(=O)NS(=O)(=O)c4ccc(N[C@H](CCN5CCN(C(=O)COCCOCCOCCOCCNc6cccc7c6C(=O)N([C@@H]6CCC(=O)NC6=O)C7=O)CC5)CSc5ccccc5)c(S(=O)(=O)C(F)(F)F)c4)cc3)CC2)C1`: the IC50 in experiment [1] worked out at 126 nM. The Activity in experiment [2] turned out to be 11%. For the same compound, the result in experiment [3] was inactive.

In the case of `CN(CCOCCOCCNc1cccc2c1C(=O)N([C@@H]1CCC(=O)NC1=O)C2=O)CC[C@H](CSc1ccccc1)Nc1ccc(S(=O)(=O)NC(=O)c2ccc(N3CCN(CC4=C(c5ccc(Cl)cc5)CCC(C)(C)C4)CC3)cc2)cc1S(=O)(=O)C(F)(F)F`, the IC50 in experiment [1] came to 35 nM. In experiment [2], the Activity was 11%. In experiment [3], the result was inactive.

For `CC1(C)CCC(c2ccc(Cl)cc2)=C(CN2CCN(c3ccc(C(=O)NS(=O)(=O)c4ccc(N[C@H](CCN5CCN(CCOCCOCCNc6cccc7c6C(=O)N([C@@H]6CCC(=O)NC6=O)C7=O)CC5)CSc5ccccc5)c(S(=O)(=O)C(F)(F)F)c4)cc3)CC2)C1`, the IC50 in experiment [1] came out at 41.4 nM. Besides, the Activity in experiment [2] is 13%. Besides, the outcome in experiment [3] was inactive.

Turning to `CC1(C)CCC(c2ccc(Cl)cc2)=C(CN2CCN(c3ccc(C(=O)NS(=O)(=O)c4ccc(N[C@H](CCN5CCN(C(=O)CCCCCCNc6cccc7c6C(=O)N([C@@H]6CCC(=O)NC6=O)C7=O)CC5)CSc5ccccc5)c(S(=O)(=O)C(F)(F)F)c4)cc3)CC2)C1`, the IC50 in experiment [1] is greater than 2000 nM. In experiment [2], the Activity was determined as 101%. The outcome in experiment [3] was inactive.

On to `CC1(C)CCC(c2ccc(Cl)cc2)=C(CN2CCN(c3ccc(C(=O)NS(=O)(=O)c4ccc(N[C@H](CCN5CCN(C(=S)NCCOCCOCCNc6cccc7c6C(=O)N([C@@H]6CCC(=O)NC6=O)C7=O)CC5)CSc5ccccc5)c(S(=O)(=O)C(F)(F)F)c4)cc3)CC2)C1` (racemic), for which, in experiment [1], the IC50 is 722 nM. Besides, the Activity in experiment [2] is 76%. Further, the outcome in experiment [3] was inactive.

With `CN(CC[C@H](CSc1ccccc1)Nc1ccc(S(=O)(=O)NC(=O)c2ccc(N3CCN(CC4=C(c5ccc(Cl)cc5)CCC(C)(C)C4)CC3)cc2)cc1S(=O)(=O)C(F)(F)F)C(=O)CCCn1cc(COCCOCCNc2cccc3c2C(=O)N([C@@H]2CCC(=O)NC2=O)C3=O)nn1`, the IC50 in experiment [1] turned out to be 770 nM. Moreover, in experiment [2], the Activity was 66%. Also, in experiment [3], the outcome was inactive.

As to `CC1(C)CCC(c2ccc(Cl)cc2)=C(CN2CCN(c3ccc(C(=O)NS(=O)(=O)c4ccc(N[C@H](CCN5CCN(C(=O)NCCOCCOCCNc6cccc7c6C(=O)N([C@@H]6CCC(=O)NC6=O)C7=O)CC5)CSc5ccccc5)c(S(=O)(=O)C(F)(F)F)c4)cc3)CC2)C1`, in experiment [1], the IC50 worked out at 118 nM. Also, the Activity in experiment [2] was found to be 27%. Further, the result in experiment [3] was inactive.

Turning to `CC1(C)CCC(c2ccc(Cl)cc2)=C(CN2CCN(c3ccc(C(=O)NS(=O)(=O)c4ccc(N[C@H](CCN5CCN(CCCNc6cccc7c6C(=O)N([C@@H]6CCC(=O)NC6=O)C7=O)CC5)CSc5ccccc5)c(S(=O)(=O)C(F)(F)F)c4)cc3)CC2)C1` (mixture of isomers), in experiment [2], the Activity came to 30%. In addition, the outcome in experiment [3] was inactive.

On to `CC1(C)CCC(c2ccc(Cl)cc2)=C(CN2CCN(c3ccc(C(=O)NS(=O)(=O)c4ccc(N[C@H](CCN5CCN(C(=O)CCCNc6cccc7c6C(=O)N([C@@H]6CCC(=O)NC6=O)C7=O)CC5)CSc5ccccc5)c(S(=O)(=O)C(F)(F)F)c4)cc3)CC2)C1`, for which the Activity in experiment [2] is 44%. Also, the outcome in experiment [3] was inactive.
